Experimental findings from patent US9980943B2, “Methods of treating muscular dystrophy” (BOARD OF REGENTS OF THE NEVADA SYSTEM OF HIGHER EDUCATION, …, priority 2013, dated 2018) are described below.

SMILES strings stand for the structures.

Common to all, as to assay type: cell-based, mouse
The test system of experiment [1] is α7 integrin (LacZ reporter in α7+/LacZ myotubes). As to the kind of experiment: Myotube α7 integrin FDG assay (Burkin assay in myotubes, 96-well). The following applies: myotubes; for fold induction at 0.5 µM / fold induction at 1 µM / fold induction at 5 µM / fold induction at 10 µM / fold induction at 20 µM / fold induction at 40 µM: Mus musculus, Myotube, read-out: Burkin Assay in Myotubes, α7 integrin LacZ reporter signal relative to DMSO.

The subject of experiment [2] is α7 integrin (LacZ reporter in α7βgal+/− myoblasts). As to the kind of experiment: Myoblast α7+/LacZ integrin FDG assay (Burkin assay in myoblasts, 96-well). As to conditions: α7+/LacZ myoblasts, 96-well; for fold induction at 0.5 µM / fold induction at 1 µM / fold induction at 5 µM / fold induction at 10 µM / fold induction at 20 µM / fold induction at 40 µM: Mus musculus, Myoblast, 48 h, read-out: Burkin Assay in Myoblasts, signal relative to DMSO.

In experiment [3] the test system is β-galactosidase in CMV-LacZ C2C12 myotubes. In words: CMV-LacZ secondary screen in C2C12 myotubes (β-Gal stabilizing assay). As to conditions: for CMV-LACZ in Myotubes, signal relative to DMSO / fold induction at 5 µM / fold induction at 10 µM / fold induction at 20 µM / fold induction at 40 µM: C2C12 CMV-LacZ myotubes, fold relative to DMSO; for fold induction at 5 µM / fold induction at 10 µM / fold induction at 20 µM / fold induction at 40 µM: Mus musculus; for fold induction at 5 µM: C2C12, read-out: CMV-LACZ in Myotubes, signal relative to DMSO, 5 uM; for fold induction at 10 µM: C2C12, read-out: CMV-LACZ in Myotubes, signal relative to DMSO, 10 uM; for fold induction at 20 µM: C2C12, read-out: CMV-LACZ in Myotubes, signal relative to DMSO, 20 uM; for fold induction at 40 µM: C2C12, read-out: CMV-LACZ in Myotubes, signal relative to DMSO, 40 uM; for CMV-LACZ in Myotubes (β-galactosidase activity relative to DMSO): CMV-LacZ C2C12 myotubes, 96-well format. An outline of the steps: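 β-gal stabilization was measured in C2C12 myoblasts or myotubes stably transfected with a CMV-driven LacZ construct, using the FDG β-gal assay. Compounds were tested in dose-response at 0.5, 1, 5, 10, 20 and 40 μM, with two replicates per point.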

Consider `COC(=O)c1ccc(C2C(C(=O)c3cc4ccccc4o3)=C(O)C(=O)N2CCN2CCOCC2)cc1` (stereo not shown) [MLS001146463-01], for which the “Burkin Assay in Myotubes (signal relative to DMSO)” value in experiment [1] (0.5 uM) turned out to be 0.8827; in experiment [1] (1 uM), 0.8032; in experiment [1] (5 uM), 1.216; in experiment [1] (10 uM) it was 0.7514; in experiment [1] (20 uM), 0.8465; in experiment [1] (40 uM), 0.8424. The “Burkin Assay in Myoblasts, value relative to DMSO” value was determined as 1.026 in experiment [2] (0.5 uM); 0.9781 in experiment [2] (1 uM); 0.9027 in experiment [2] (5 uM); 0.9293 in experiment [2] (10 uM); 0.7318 in experiment [2] (20 uM); 0.8061 in experiment [2] (40 uM). Besides, the “CMV-LACZ in Myotubes, signal relative to DMSO” value in experiment [3] (5 uM) was 1.074; in experiment [3] (10 uM), 0.9392; in experiment [3] (20 uM), 1.06; in experiment [3] (40 uM) it was 1.141.
As for `COc1cc(C)c(NC(=O)COc2ccc3c(c2)OCO3)cc1C` [MLS001223425-01], the fold induction at 0.5 µM in experiment [1] (0.5 uM) worked out at 1.08; in experiment [2] (0.5 uM), 1.06. The fold induction at 1 µM was determined as 1.22 in experiment [1] (1 uM) and 1.08 in experiment [2] (1 uM). In addition, the fold induction at 5 µM in experiment [1] (5 uM) was 0.914; in experiment [2] (5 uM) it was 1.06; in experiment [3] it was 0.956. Also, the fold induction at 10 µM in experiment [1] (10 uM) was 1.38; in experiment [2] (10 uM), 1.15; in experiment [3], 1.04. The values for the fold induction at 20 µM in experiment [1] (20 uM), in experiment [2] (20 uM) and in experiment [3] were 1.14, 1.22 and 0.979, respectively. The fold induction at 40 µM was found to be 1.18 in experiment [1] (40 uM), 1.13 in experiment [2] (40 uM) and 1.01 in experiment [3].
`COc1cc(NC(=O)C2C3C=CC(C3)C2C(=O)O)ccc1NC(=O)c1ccccc1` (stereo not shown) [MLS001125488-01]: the fold induction at 0.5 µM in experiment [1] (0.5 uM) came to 1.03; in experiment [2] (0.5 uM), 0.933. Moreover, the fold induction at 1 µM in experiment [1] (1 uM) stood at 1.15; in experiment [2] (1 uM), 0.976. In addition, the fold induction at 5 µM turned out to be 1.12 in experiment [1] (5 uM), 0.99 in experiment [2] (5 uM) and 0.747 in experiment [3]. For the same compound, the results for the fold induction at 10 µM in experiment [1] (10 uM), in experiment [2] (10 uM) and in experiment [3] were 1.32, 0.879 and 0.968, respectively. In addition, the fold induction at 20 µM in experiment [1] (20 uM) worked out at 1.14; in experiment [2] (20 uM) it was 0.907; in experiment [3], 1.18. Moreover, the values for the fold induction at 40 µM in experiment [1] (40 uM), in experiment [2] (40 uM) and in experiment [3] were 1.22, 0.923 and 0.872, respectively.
Take `Cc1ccc(C2Nc3cccc4cccc(c34)N2)s1` [MLS000591198-01]: the “Burkin Assay in Myotubes (signal relative to DMSO)” value in experiment [1] (0.5 uM) came to 1.017; in experiment [1] (1 uM), 0.881; in experiment [1] (5 uM), 1; in experiment [1] (10 uM), 0.8548; in experiment [1] (20 uM), 0.9852; in experiment [1] (40 uM), 0.7014. The “Burkin Assay in Myoblasts, value relative to DMSO” value in experiment [2] (0.5 uM) was found to be 1.006; in experiment [2] (1 uM), 0.9251; in experiment [2] (5 uM) it was 1.037; in experiment [2] (10 uM), 0.9593; in experiment [2] (20 uM) it was 0.7765; in experiment [2] (40 uM), 0.473. Further, the “CMV-LACZ in Myotubes (β-galactosidase activity relative to DMSO)” value in experiment [3] (5 uM) was 0.9681; in experiment [3] (10 uM), 0.9319; in experiment [3] (20 uM) it was 0.8338; in experiment [3] (40 uM), 0.4531.
On to `CCOCCCN1C(=O)CN(C2CCCCCC2)C(=O)C1c1ccc(OC)cc1` (stereo not shown) [MLS000046123-01], for which the “Burkin Assay in Myotubes (signal relative to DMSO)” value is given as 0.9802 in experiment [1] (0.5 uM); 0.9389 in experiment [1] (1 uM); 0.8905 in experiment [1] (5 uM); 0.865 in experiment [1] (10 uM); 0.9268 in experiment [1] (20 uM); 0.9203 in experiment [1] (40 uM). Moreover, the “Burkin Assay in Myoblasts, value relative to DMSO” value was found to be 1.049 in experiment [2] (0.5 uM); 0.9808 in experiment [2] (1 uM); 0.9565 in experiment [2] (5 uM); 1.007 in experiment [2] (10 uM); 1.002 in experiment [2] (20 uM); 0.9894 in experiment [2] (40 uM). Moreover, the “CMV-LACZ in Myotubes, signal relative to DMSO” value in experiment [3] (5 uM) turned out to be 0.9124; in experiment [3] (10 uM), 1.084; in experiment [3] (20 uM), 1.145; in experiment [3] (40 uM), 1.076.
Consider `CNc1cc([N+](=O)[O-])ccc1OCc1ccccc1` [MLS000737204-01], for which the “Burkin Assay in Myotubes, α7 integrin LacZ reporter signal relative to DMSO” value in experiment [1] (0.5 uM) stood at 1.043; in experiment [1] (1 uM), 1.173; in experiment [1] (5 uM) it was 1.0331; in experiment [1] (10 uM) it was 1.12; in experiment [1] (20 uM) it was 0.8815; in experiment [1] (40 uM), 0.6682. The “Burkin Assay in Myoblasts, signal relative to DMSO” value in experiment [2] (0.5 uM) was found to be 0.9011; in experiment [2] (1 uM) it was 0.9816; in experiment [2] (5 uM), 0.9164; in experiment [2] (10 uM), 0.9336; in experiment [2] (20 uM) it was 0.8731; in experiment [2] (40 uM) it was 0.7472. Moreover, the “CMV-LACZ in Myotubes, signal relative to DMSO” value in experiment [3] (5 uM) is listed as 1.029; in experiment [3] (10 uM) it was 0.8068; in experiment [3] (20 uM), 0.5772; in experiment [3] (40 uM), 0.3807.
Regarding `O=C(Nc1ccc(Cl)cc1N1CCOCC1)C1CCCCC1` [MLS001060549-01], the “Burkin Assay in Myotubes (signal relative to DMSO)” value in experiment [1] (0.5 uM) was 0.8181; in experiment [1] (1 uM), 1.071; in experiment [1] (5 uM), 0.9783; in experiment [1] (10 uM), 1.111; in experiment [1] (20 uM) it was 0.9391; in experiment [1] (40 uM), 0.9134. The “Burkin Assay in Myoblasts, value relative to DMSO” value in experiment [2] (0.5 uM) was 1.056; in experiment [2] (1 uM), 1.204; in experiment [2] (5 uM), 1.012; in experiment [2] (10 uM) it was 1.072; in experiment [2] (20 uM) it was 0.7731; in experiment [2] (40 uM) it was 0.9411. In addition, the “CMV-LACZ in Myotubes, signal relative to DMSO” value in experiment [3] (5 uM) is listed as 1.322; in experiment [3] (10 uM), 0.8952; in experiment [3] (20 uM), 0.8814; in experiment [3] (40 uM), 1.075.
